How the values were obtained:
[1] = system: pathways (Reactome, KEGG, MouseCyc) in mouse tongue; experiment: Pathway enrichment analysis (ConsensusPathDB) of RNA-Seq data
Description: RNA-Seq analysis of mRNA transcriptome. Representative tongue samples were chosen for the RNA-Seq analysis: untreated (n=5), 4-NQO treatment group (n=3), 4N+B (n=4), 4N+C (n=4), and 4N+B+C (n=5). The extraction of total cellular RNA from mouse tissues was carried out using the RNeasy kit (Qiagen). Subsequent RNA preparation steps were carried out at the Genomics Resources Core Facility of WCMC. The measurement of RNA integrity was determined using the Agilent 2100 BioAnalyzer (Agilent Technologies). Samples with RNA integrity number (RIN) values of 10 were used to construct cDNA libraries. mRNA was purified by using pre-prepared Sera-mag Magnetic Oligo(dT) Beads from Illumina Inc. (SanDiego, Calif.), subjected to thermal fragmentation, and reverse transcribed to first strand cDNA. Following the removal of mRNA strands by RNaseH, first strand cDNAs were used as templates to produce double strand cDNAs, and the overhangs resulting from fragmentation were repaired to blunt ends. An ‘A’ base was added to the 3′ end of cDNAs and subsequently the cDNAs were ligated to Illumina paired end (PE) adaptors that have a single ‘T’ base overhang at their 3′ end. The cDNA-adaptor libraries were purified and enriched by 15 cycles of PCR. The enriched libraries were hybridized to a flow cell and amplified, resulting in ultra-high density flow cells with millions of clusters, each containing about 1,000 copies of the templates. The double stranded cDNA-adaptors were denatured and converted into single strand DNA, and then the template cDNAs were amplified one more time isothermally to produce surface-bound colonies. The clonal DNA clusters were linearized, free 3′ OH ends blocked, denatured, hybridized to sequencing primers, and sequenced. The sequencing was conducted by running 4 samples per lane with 51 pair-end cycles on the HISeq2000/1000. The Sequencing-by-Synthesis process used reversible terminators and a DNA polymerase modified to accept reversible terminator nucleotides. After each synthesis cycle the fluorescence of clusters was imaged with high sensitivity. Then the sequencing images were analyzed in three steps, image analysis, base calling, and sequence analysis. The Tophat software was used to align raw sequencing reads against the UCSC mm9 mouse reference genome, and Cufflinks software was employed to measure transcript abundances in the unit of fragments per kilobase of exon model per million mapped reads (FPKM), as well as to perform statistical analysis on the changes in gene expression. The heat maps for genes of interest were generated by R package software.

[2] = system: mouse tongue mRNA transcriptome; experiment: RNA-Seq analysis of the mRNA transcriptome of mouse tongues; type: in vivo
Description: RNA-Seq analysis of the mRNA transcriptome. One part of each mouse tongue (same position on each mouse tongue) was snap frozen in liquid N2 and stored at −70° C. until total RNA extraction. Total tissue RNA was extracted and subjected to Next-Generation Sequencing (RNA-Seq) at the Genomics Resources Core Facility, Weill Cornell Medical College. Bioinfomatics analyses were performed using the Tophat and Cufflink software. (supporting information).
RNA-Seq analysis of mRNA transcriptome. […] The GEO Accession number is GSE54246; embargoed until publication.

IL-6 = experiment: Immunohistochemistry of tongue epithelium: IL-6; type: in vivo, mouse; conditions: compared to the 4-NQO group; antibody staining
Text: (§1) The tongues were fixed, embedded in paraffin, and sectioned. Then the tissue sections were stained with various antibodies (magnification, 200×). Four to five representative areas of each tongue section from two to four mice/group were photographed and analyzed (FIGS. 12A and 12B). Interleukin-6 (IL-6) is a multifunctional cytokine that is involved in the regulation of immune responses and cellular functions. IL-6 levels are enhanced in human oral squamous cell carcinoma and IL-6 is considered a bad prognostic factor in this cancer (Expert Opin Ther Targets. 2013 January; 17(1):53-9). IL-6 protein was detected primarily in the basal layer of tongue epithelium in the UNT samples (FIG. 12A, arrows), but in the 4-NQO treated samples we observed both an increase in the protein level and an expansion of IL-6 signal to the suprabasal layers of the tongue epithelium (FIG. 12A).

[3] = system: GO categories in mouse tongue; experiment: Gene ontology (GO) analysis of RNA-Seq data; type: in vivo; conditions: compared to the 4-NQO group
Description: Gene ontology (GO) analysis. Gene ontology (GO) analysis (p-value cutoff: 0.00001), using the ConsensusPathDB online tool, was conducted on the Gene Ontology level 3 of the “Biological Process” domain that has predefined, functional sets for enrichment analysis with default parameter settings.

MCT4 = experiment: Immunohistochemistry of tongue epithelium: MCT4; type: in vivo, mouse; conditions: compared to the 4-NQO group; antibody staining
Text: as §1

[4] = Mouse serum triglyceride level measurements; type: in vivo; conditions: treatment for 15 weeks; compared to the UNT group
Description: Mouse serum triglyceride level measurements. Blood samples from the mice were obtained from mouse tails. The analysis of serum triglyceride levels was carried out at the Laboratory of Comparative Pathology of the Memorial Sloan-Kettering Cancer Center. UNT (n=4); 4-NQO (n=3); 4N+B (n=4); 4N+C (n=3), and 4N+B+C (n=4).

[5] = system: tongue lesions (4-NQO induced oral cavity carcinogenesis); experiment: 4-NQO mouse oral cavity carcinogenesis model: gross tongue lesion number and severity
[6] = down-regulated vs. 4-NQO group, KEGG
[7] = down-regulated vs. 4-NQO group, Reactome
[8] = upregulated vs. 4-NQO group, KEGG
[9] = upregulated vs. 4-NQO group, MouseCyc
[10] = upregulated vs. 4-NQO group, Reactome
[11] = compared to the 4-NQO group, p<0.05

## O=C(O)c1ccc(-c2ccc3cc(O)c(C45CC6CC(CC(C6)C4)C5)cc3c2)cc1 [CD1530]
[1]; compared to the 4-NQO group
  cytochrome P450 enzymes (pathway analysis): significantly elevated
[1]; [6]
  candidates contained, pathway Cell cycle-Mus musculus (mouse): 23 (18.1%)
  candidates contained, pathway DNA replication-Mus musculus (mouse): 9 (25.0%)
  candidates contained, pathway ECM-receptor interaction-Mus musculus (mouse): 13 (15.1%)
  candidates contained, pathway Pathways in cancer-Mus musculus (mouse): 27 (8.4%)
  candidates contained, pathway Small cell lung cancer-Mus musculus (mouse): 13 (14.9%)
  candidates contained, pathway p53 signaling pathway-Mus musculus (mouse): 12 (17.4%)
[1]; [7]
  candidates contained, pathway Activation of ATR in response to replication stress: 11 (28.9%)
  candidates contained, pathway Activation of the pre-replicative complex: 11 (37.9%)
  candidates contained, pathway Assembly of the pre-replicative complex: 9 (40.9%)
  candidates contained, pathway Cell Cycle: 54 (17.8%)
  candidates contained, pathway Cell Cycle Checkpoints: 19 (24.7%)
  candidates contained, pathway Cell Cycle, Mitotic: 52 (19.4%)
  candidates contained, pathway Cyclin A/B1 associated events during G2/M transition: 6 (37.5%)
  candidates contained, pathway Cyclin B2 mediated events: 4 (80.0%)
  candidates contained, pathway DNA Replication: 41 (26.1%)
  candidates contained, pathway DNA Replication Pre-Initiation: 12 (33.3%)
  candidates contained, pathway DNA strand elongation: 8 (25.8%)
  candidates contained, pathway G1/S Transition: 14 (22.6%)
  candidates contained, pathway G2/M Checkpoints: 14 (31.1%)
  candidates contained, pathway M Phase: 27 (27.3%)
  candidates contained, pathway M/G1 Transition: 12 (33.3%)
  candidates contained, pathway Mitotic G1-G1/S phases: 16 (21.9%)
  candidates contained, pathway Mitotic M-M/G1 phases: 39 (28.9%)
  candidates contained, pathway Mitotic Prometaphase: 26 (27.4%)
  candidates contained, pathway Orc1 removal from chromatin: 8 (28.6%)
  candidates contained, pathway Regulation of DNA replication: 10 (33.3%)
  candidates contained, pathway Removal of licensing factors from origins: 10 (33.3%)
  candidates contained, pathway S Phase: 12 (17.4%)
  candidates contained, pathway Switching of origins to a post-replicative state: 8 (28.6%)
  candidates contained, pathway Synthesis of DNA: 11 (20.4%)
  candidates contained, pathway Unwinding of DNA: 6 (54.5%)
[1]; [8]
  candidates contained, pathway Arachidonic acid metabolism-Mus musculus (mouse): 25 (26.6%)
  candidates contained, pathway Ascorbate and aldarate metabolism-Mus musculus (mouse): 11 (42.3%)
  candidates contained, pathway Bile secretion-Mus musculus (mouse): 23 (32.4%)
  candidates contained, pathway Biosynthesis of unsaturated fatty acids-Mus musculus (mouse): 10 (40.0%)
  candidates contained, pathway Complement and coagulation cascades-Mus musculus (mouse): 38 (50.0%)
  candidates contained, pathway Drug metabolism-cytochrome P450-Mus musculus (mouse): 52 (59.8%)
  candidates contained, pathway Drug metabolism-other enzymes-Mus musculus (mouse): 22 (39.3%)
  candidates contained, pathway Fatty acid metabolism-Mus musculus (mouse): 13 (26.5%)
  candidates contained, pathway Glycine, serine and threonine metabolism-Mus musculus (mouse): 12 (30.8%)
  candidates contained, pathway Linoleic acid metabolism-Mus musculus (mouse): 24 (53.3%)
  candidates contained, pathway Maturity onset diabetes of the young-Mus musculus (mouse): 11 (42.3%)
  candidates contained, pathway Metabolic pathways-Mus musculus (mouse): 160 (13.4%)
  candidates contained, pathway Metabolism of xenobiotics by cytochrome P450-Mus musculus (mouse): 50 (55.6%)
  candidates contained, pathway PPAR signaling pathway-Mus musculus (mouse): 24 (29.6%)
  candidates contained, pathway Pentose and glucuronate interconversions-Mus musculus (mouse): 11 (34.4%)
  candidates contained, pathway Peroxisome-Mus musculus (mouse): 18 (22.8%)
  candidates contained, pathway Primary bile acid biosynthesis-Mus musculus (mouse): 8 (50.0%)
  candidates contained, pathway Propanoate metabolism-Mus musculus (mouse): 11 (34.4%)
  candidates contained, pathway Retinol metabolism-Mus musculus (mouse): 42 (53.2%)
  candidates contained, pathway Serotonergic synapse-Mus musculus (mouse): 24 (17.3%)
  candidates contained, pathway Steroid hormone biosynthesis-Mus musculus (mouse): 19 (34.5%)
  candidates contained, pathway Tryptophan metabolism-Mus musculus (mouse): 16 (36.4%)
  candidates contained, pathway Tyrosine metabolism-Mus musculus (mouse): 11 (28.2%)
  candidates contained, pathway beta-Alanine metabolism-Mus musculus (mouse): 10 (33.3%)
[1]; [9]
  candidates contained, pathway bupropion degradation: 29 (74.4%)
  candidates contained, pathway nicotine degradation II: 41 (65.1%)
  candidates contained, pathway nicotine degradation III: 35 (63.6%)
[1]; [10]
  candidates contained, pathway Activation of C3 and C5: 5 (83.3%)
  candidates contained, pathway Bile acid and bile salt metabolism: 19 (50.0%)
  candidates contained, pathway Biological oxidations: 64 (40.5%)
  candidates contained, pathway Chylomicron-mediated lipid transport: 11 (61.1%)
  candidates contained, pathway Common Pathway: 9 (69.2%)
  candidates contained, pathway Complement cascade: 11 (39.3%)
  candidates contained, pathway Cytochrome P450-arranged by substrate type: 42 (51.2%)
  candidates contained, pathway Formation of Fibrin Clot (Clotting Cascade): 18 (52.9%)
  candidates contained, pathway Gamma-carboxylation of protein precursors: 6 (66.7%)
  candidates contained, pathway Gamma-carboxylation, transport, and amino-terminal cleavage of proteins: 6 (60.0%)
  candidates contained, pathway HDL-mediated lipid transport: 9 (52.9%)
  candidates contained, pathway Intrinsic Pathway: 10 (50.0%)
  candidates contained, pathway Lipid digestion, mobilization, and transport: 18 (36.7%)
  candidates contained, pathway Lipoprotein metabolism: 16 (51.6%)
  candidates contained, pathway Metabolism: 181 (18.6%)
  candidates contained, pathway Metabolism of amino acids and derivatives: 34 (27.4%)
  candidates contained, pathway Metabolism of lipids and lipoproteins: 57 (21.8%)
  candidates contained, pathway Miscellaneous substrates: 10 (55.6%)
  candidates contained, pathway Phase 1-Functionalization of compounds: 51 (51.5%)
  candidates contained, pathway Phase II conjugation: 14 (23.3%)
  candidates contained, pathway Phenylalanine and tyrosine catabolism: 7 (87.5%)
  candidates contained, pathway Platelet degranulation: 19 (29.7%)
  candidates contained, pathway Recycling of bile acids and salts: 7 (50.0%)
  candidates contained, pathway Removal of aminoterminal propeptides from gamma-carboxylated proteins: 6 (66.7%)
  candidates contained, pathway Response to elevated platelet cytosolic Ca2+: 19 (27.1%)
  candidates contained, pathway Synthesis of bile acids and bile salts: 15 (55.6%)
  candidates contained, pathway Synthesis of bile acids and bile salts via 7alpha-hydroxycholesterol: 15 (65.2%)
  candidates contained, pathway Synthesis of bile acids and bile salts via 24-hydroxycholesterol: 11 (61.1%)
  candidates contained, pathway Synthesis of bile acids and bile salts via 27-hydroxycholesterol: 8 (57.1%)
  candidates contained, pathway Terminal pathway of complement: 5 (83.3%)
  candidates contained, pathway Transport of gamma-carboxylated protein precursors from the ER to the Golgi apparatus: 6 (75.0%)
  candidates contained, pathway Xenobiotics: 31 (81.6%)
[2]; compared to the 4-NQO group
  transcript levels of DNA replication genes (MCM 2-7 and 10, DNA2, LIG1, ORC1, POLA1, PRIM2): significantly lower transcript levels of the majority of these genes
[2]; [11]
  number of genes with decreased transcript levels: 531
  number of genes with increased transcript levels: 987
  number of genes with significantly different transcript levels: 1518
[2]; greater than in other groups, RARγ target gene
  Cyp26a1 mRNA level: about 20 fold
IL-6
  IL-6 protein levels in the tongue epithelium: lower IL-6 protein levels
[3]
  GO categories related to cell cycle, DNA replication, and mitosis: most under-expressed
  over-represented GO categories: over-representation of many GO categories, with some of them involved in lipid metabolism
MCT4
  MCT4 protein levels in the tongue epithelium: lower MCT4 protein levels
[4]
  serum triglyceride levels: did not change serum triglyceride levels significantly
[5]; C57BL/6 female mice, 4-NQO 10 weeks, then drug in 15 week post 4-NQO period, bexarotene 300 mg/kg diet, CD1530 […]100 ml drinking water, 4-NQO group 5.9±3.2
  number of tongue lesions (gross tongue lesion multiplicity): 3.9±1.7
[5]; same model, 4-NQO group 2.8±0.8
  average severity of tongue lesions (grade 0-4): 1.6±0.8
